Measured values as given in US8889704B2 (Array BioPharma Inc., priority 2011, dated 2014).
Counter-ions that a name gives are not always drawn.

What was measured:
Assay type in all cases: biochemical
recombinant rat PIM-3 = recombinant rat PIM-3 (Rattus norvegicus, UniProt O70444); test: PIM-3 Assay (as Example A); settings: averaged IC50; 30 μM ATP, 3.75 μM PIM2tide, 0.5 nM PIM-3
Protocol: (§1) The assay for the determination of PIM-1 activity is based on the incorporation of [^33P]PO4 from [γ-^33P]ATP into PIM2tide substrate and capture of the radiolabeled peptide onto a Whatman P81 (phosphocellulose) filter plate. The amount of radiolabeled product is then measured by liquid scintillation counting. The final buffer conditions were as follows: 20 mM K^+MOPS, pH 7.4, 10 mM MgCl2, 0.005% Tween-20, 1 mM DTT. Assay mixtures contained 35 μM [γ-^33P]ATP (20 μCi/mL), 7.5 μM PIM2tide and 0.25 nM PIM-1 in a total volume of 50 μL. Incubations were carried out for 60 min at 22° C. and quenched with 75 μL of 200 mM H3PO4, filtered through a Whatman P81 plate and washed (1×200 μL and 5×100 μL) with 200 mM H3PO4. Fifty μL of liquid scintillation cocktail were then added per well, and the plate was counted for 30 s/well using a TopCount NXT.
(§2) Compounds were prepared at 50× the final concentration in DMSO by conducting 3-fold serial dilutions from a 500-μM intermediate dilution to give a 10-point dosing curve having a high dose of 10 μM. One-μL aliquots of these were then transferred to the assay mixtures above to give a final concentration of DMSO of 2%. A standard or reference compound was typically included on each assay plate to validate that plate. For each plate, percent of control (POC) values were calculated for each well. IC50 values were estimated from the POC values using a standard 4-parameter logistic model. The IC50 is defined as the concentration of inhibitor at which the POC equals 50 for the fitted curve.
Assay was performed as described in Example A, using 30 μM [γ-^33P]ATP (20 μCi/mL), 3.75 μM PIM2tide and 0.5 nM recombinant rat PIM-3 in place of PIM-1.

PIM-1 = PIM-1 (Homo sapiens, UniProt P11309); test: Enzyme PIM-1 Assay ([33P]ATP incorporation into PIM2tide, filter plate); settings: averaged IC50; 35 μM ATP, 7.5 μM PIM2tide, 0.25 nM PIM-1, 60 min at 22° C.
Protocol: as §1, §2

[1] = biological target: T1, GST-tagged recombinant full-length human Pim-2 (Homo sapiens, UniProt Q9P1W9); test: PIM-2 Assay (as Example A); settings: averaged IC50; 4 μM ATP, 1.0 μM PIM2tide, 1.5 nM Pim-2
T1 construct: GST-tagged recombinant full-length human Pim-2; GST
Protocol: as §1, §2
Assay was performed as described in Example A, using 4 μM [γ-^33P]ATP (20 μCi/mL), 1.0 μM PIM2tide and 1.5 nM GST-tagged recombinant full-length human Pim-2 in place of PIM-1.

PIM-1, sequence (P11309 whole entry, species assumed): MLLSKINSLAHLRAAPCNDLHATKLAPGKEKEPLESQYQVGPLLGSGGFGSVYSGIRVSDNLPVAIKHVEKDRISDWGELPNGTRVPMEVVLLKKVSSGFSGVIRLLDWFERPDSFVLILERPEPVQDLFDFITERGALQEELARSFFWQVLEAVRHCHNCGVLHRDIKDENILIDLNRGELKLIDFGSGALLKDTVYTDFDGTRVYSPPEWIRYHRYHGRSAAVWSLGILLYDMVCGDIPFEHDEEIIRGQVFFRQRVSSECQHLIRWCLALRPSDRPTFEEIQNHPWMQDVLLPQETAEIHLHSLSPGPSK
T1 sequence (Q9P1W9 whole entry): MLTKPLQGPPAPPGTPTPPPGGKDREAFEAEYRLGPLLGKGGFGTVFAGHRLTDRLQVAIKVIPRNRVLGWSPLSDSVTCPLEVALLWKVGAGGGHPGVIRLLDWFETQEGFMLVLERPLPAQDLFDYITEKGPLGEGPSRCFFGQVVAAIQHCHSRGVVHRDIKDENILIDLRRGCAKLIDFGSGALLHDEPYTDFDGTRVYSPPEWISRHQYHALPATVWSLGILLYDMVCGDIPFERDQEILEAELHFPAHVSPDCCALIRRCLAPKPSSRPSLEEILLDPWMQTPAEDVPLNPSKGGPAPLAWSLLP

Molecule NC[C@@H]1CCN(C(c2ccc3nnc(-c4ccc5cccc(OCC6CC6)c5n4)n3c2)C(F)(F)F)C1 (stereo partly drawn) [Example 24, ((3S)-1-(1-(3-(8-(cyclopropylmethoxy)quinolin-2-yl)-[1,2,4]triazolo[4,3-a]pyridin-6-yl)-2,2,2-trifluoroethyl)pyrrolidin-3-yl)methanamine dihydrochloride] has an IC50 (recombinant rat PIM-3) of 76 nM, an IC50 (PIM-1) of 2.01 nM and an IC50 [1] of 935 nM.

Work on N[C@H]1CCN([C@H](c2ccc3nnc(-c4ccc5cccc(OC(F)(F)F)c5n4)n3c2)C(F)(F)F)C1 [Example 40, (S)-1-((R)-2,2,2-trifluoro-1-(3-(8-(trifluoromethoxy)quinolin-2-yl)-[1,2,4]triazolo[4,3-a]pyridin-6-yl)ethyl)pyrrolidin-3-amine dihydrochloride] yielded an IC50 (recombinant rat PIM-3) of 4.7 nM, an IC50 (PIM-1) of 0.21 nM and an IC50 [1] of 78 nM.

CCOc1cc2nc(-c3nnc4ccc([C@@H](N5CC[C@@H](CN)C5)C(F)(F)F)cn34)ccc2cc1F [Example 279, ((S)-1-((R)-1-(3-(7-ethoxy-6-fluoroquinolin-2-yl)-[1,2,4]triazolo[4,3-a]pyridin-6-yl)-2,2,2-trifluoroethyl)pyrrolidin-3-yl)methanamine hydrochloride] was tested, and the IC50 (recombinant rat PIM-3) was 3.1 nM, the IC50 (PIM-1) was 0.96 nM and the IC50 [1] was 431 nM.

N[C@H]1CCN([C@H](c2ccc3nnc(-c4ccc5cc(F)cc(OCC(F)(F)F)c5n4)n3c2)C(F)(F)F)C1 [Example 232, (S)-1-((R)-2,2,2-trifluoro-1-(3-(6-fluoro-8-(2,2,2-trifluoroethoxy)quinolin-2-yl)-[1,2,4]triazolo[4,3-a]pyridin-6-yl)ethyl)pyrrolidin-3-amine dihydrochloride] showed an IC50 (recombinant rat PIM-3) of 0.8 nM, an IC50 (PIM-1) of 0.2 nM and an IC50 [1] of 206 nM.

COc1ccc2ccc(-c3nnc4ccc([C@@H](N5CC[C@H](N)C5)C(F)(F)F)cn34)nc2c1C1CC1 [Example 143, (S)-1-((R)-1-(3-(8-cyclopropyl-7-methoxyquinolin-2-yl)-[1,2,4]triazolo[4,3-a]pyridin-6-yl)-2,2,2-trifluoroethyl)pyrrolidin-3-amine dihydrochloride] was tested, and the IC50 (recombinant rat PIM-3) was 0.5 nM, the IC50 (PIM-1) was 0.09 nM and the IC50 [1] was 38 nM.

CC(C)(O)COc1ccc2ccc(-c3nnc4ccc([C@H](N5CC[C@](C)(N)C5)C(F)(F)F)cn34)nc2c1 [Example 297, 1-(2-(6-((S)-1-((S)-3-amino-3-methylpyrrolidin-1-yl)-2,2,2-trifluoroethyl)-[1,2,4]triazolo[4,3-a]pyridin-3-yl)quinolin-7-yloxy)-2-methylpropan-2-ol dihydrochloride] gave an IC50 (recombinant rat PIM-3) of 0.2 nM, an IC50 (PIM-1) of 0.18 nM and an IC50 [1] of 20 nM.

For COc1cccc2ccc(-c3nnc4ccc([C@@H](N5C[C@@H](N)[C@@H](O)C5)C(F)(F)F)cn34)nc12 [Example 137, (3S,4R)-4-amino-1-((R)-2,2,2-trifluoro-1-(3-(8-methoxyquinolin-2-yl)-[1,2,4]triazolo[4,3-a]pyridin-6-yl)ethyl)pyrrolidin-3-ol dihydrochloride], the IC50 (recombinant rat PIM-3) was 34 nM, the IC50 (PIM-1) was 3.5 nM and the IC50 [1] was over 1000 nM.

For CC(C)C(=O)OCCOc1cc2nc(-c3nnc4ccc([C@@H](N5CC[C@H](N)C5)C(F)(F)F)cn34)ccc2cc1F [Example 285, 2-(2-(6-((R)-1-((S)-3-aminopyrrolidin-1-yl)-2,2,2-trifluoroethyl)-[1,2,4]triazolo[4,3-a]pyridin-3-yl)-6-fluoroquinolin-7-yloxy)ethyl isobutyrate], the IC50 (recombinant rat PIM-3) was 8.6 nM, the IC50 (PIM-1) was 0.57 nM and the IC50 [1] was over 1000 nM.

With N[C@H]1CCN([C@H](c2ccc3nnc(-c4ccc5ccc(C6CC6)cc5n4)n3c2)C(F)(F)F)C1 (single isomer, unassigned) [Example 13] the IC50 (recombinant rat PIM-3) was 1 nM, the IC50 (PIM-1) was 0.31 nM and the IC50 [1] was 121 nM.

Molecule N[C@H]1CCN([C@H](c2ccc3nnc(-c4ccc5cc(F)c(O)cc5n4)n3c2)C(F)(F)F)C1 [Example 157, 2-(6-((R)-1-((S)-3-aminopyrrolidin-1-yl)-2,2,2-trifluoroethyl)-[1,2,4]triazolo[4,3-a]pyridin-3-yl)-6-fluoroquinolin-7-ol hydrochloride] has an IC50 (recombinant rat PIM-3) of 12 nM, an IC50 (PIM-1) of 3.44 nM and an IC50 [1] of 239 nM.

Work on NC[C@H]1CCN(C(c2ccc3nnc(-c4ccc5cccc(OCC6CC6)c5n4)n3c2)C(F)(F)F)C1 (stereo partly drawn) [Example 21, ((3R)-1-(1-(3-(8-(cyclopropylmethoxy)quinolin-2-yl)-[1,2,4]triazolo[4,3-a]pyridin-6-yl)-2,2,2-trifluoroethyl)pyrrolidin-3-yl)methanamine dihydrochloride] yielded an IC50 (recombinant rat PIM-3) of 46 nM, an IC50 (PIM-1) of 1.14 nM and an IC50 [1] of 427 nM.

For CCOc1cc2nc(-c3nnc4ccc([C@@H](N5CC[C@@H](N)C5)C(F)(F)F)cn34)ccc2cc1F [Example 282, (R)-1-((R)-1-(3-(7-ethoxy-6-fluoroquinolin-2-yl)-[1,2,4]triazolo[4,3-a]pyridin-6-yl)-2,2,2-trifluoroethyl)pyrrolidin-3-amine hydrochloride], the IC50 (recombinant rat PIM-3) was 0.8 nM, the IC50 (PIM-1) was 0.28 nM and the IC50 [1] was 166 nM.

N[C@H]1CCN([C@H](c2ccc3nnc(-c4ccc5ccc(O[C@H]6CCC[C@@H]6O)cc5n4)n3c2)C(F)(F)F)C1 (single isomer, unassigned; diastereomer 1) [Example 319, di-hydrochloride] gave an IC50 (recombinant rat PIM-3) of 0.3 nM, an IC50 (PIM-1) of 0.11 nM and an IC50 [1] of 112 nM.

In the case of N[C@H]1CCN([C@H](c2ccc3nnc(-c4ccc5ccc(CCO)cc5n4)n3c2)C(F)(F)F)C1 [Example 265, 2-(2-(6-((R)-1-((S)-3-aminopyrrolidin-1-yl)-2,2,2-trifluoroethyl)-[1,2,4]triazolo[4,3-a]pyridin-3-yl)quinolin-7-yl)ethanol dihydrochloride], the IC50 (recombinant rat PIM-3) is reported as 1.3 nM, the IC50 (PIM-1) is reported as 0.53 nM and the IC50 [1] is reported as over 1000 nM.

COc1ccc2ccc(-c3nnc4ccc([C@@H](N5CC[C@H](N)C5)C(F)(F)F)cn34)nc2c1Cl [Example 175, (S)-1-((R)-1-(3-(8-chloro-7-methoxyquinolin-2-yl)-[1,2,4]triazolo[4,3-a]pyridin-6-yl)-2,2,2-trifluoroethyl)pyrrolidin-3-amine hydrochloride] showed an IC50 (recombinant rat PIM-3) of 1.4 nM, an IC50 (PIM-1) of 0.7 nM and an IC50 [1] of over 100 nM.

In the case of CCOc1ccc2ccc(-c3nnc4ccc([C@H](N5CCC6(CCCN6)C5)C(F)(F)F)cn34)nc2c1 (stereo partly drawn) [Example 258, 7-ethoxy-2-(6-((1S)-2,2,2-trifluoro-1-(1,7-diazaspiro[4.4]nonan-7-yl)ethyl)-[1,2,4]triazolo[4,3-a]pyridin-3-yl)quinoline dihydrochloride], the IC50 (recombinant rat PIM-3) is reported as 1.9 nM, the IC50 (PIM-1) is reported as 2.05 nM and the IC50 [1] is reported as 531 nM.

COC(C)(C)COc1cccc2ccc(-c3nnc4ccc([C@@H](N5CC[C@H](N)C5)C(F)(F)F)cn34)nc12 [Example 276, (S)-1-((R)-2,2,2-trifluoro-1-(3-(8-(2-methoxy-2-methylpropoxy)quinolin-2-yl)-[1,2,4]triazolo[4,3-a]pyridin-6-yl)ethyl)pyrrolidin-3-amine formate] showed an IC50 (recombinant rat PIM-3) of 0.3 nM, an IC50 (PIM-1) of 0.2 nM and an IC50 [1] of 44 nM.

CC1(NC(=O)c2ccc3ccc(-c4nnc5ccc([C@@H](N6CC[C@@H](N)C6)C(F)(F)F)cn45)nc3c2)CC1 [Example 55, 2-(6-((R)-1-((R)-3-aminopyrrolidin-1-yl)-2,2,2-trifluoroethyl)-[1,2,4]triazolo[4,3-a]pyridin-3-yl)-N-(1-methylcyclopropyl)quinoline-7-carboxamide dihydrochloride] showed an IC50 (recombinant rat PIM-3) of 0.3 nM, an IC50 (PIM-1) of 0.25 nM and an IC50 [1] of 35 nM.

With CN[C@H]1CCN([C@H](c2ccc3nnc(-c4ccc5ccc(C(=O)NC(C)C)cc5n4)n3c2)C(F)(F)F)C1 [Example 57, N-isopropyl-2-(6-((R)-2,2,2-trifluoro-1-((S)-3-(methylamino)pyrrolidin-1-yl)ethyl)-[1,2,4]triazolo[4,3-a]pyridin-3-yl)quinoline-7-carboxamide] the IC50 (recombinant rat PIM-3) was 0.9 nM, the IC50 (PIM-1) was 0.45 nM and the IC50 [1] was over 100 nM.

CCOc1cc2nc(-c3nnc4ccc([C@H](N5CCC(N)(CC)C5)C(F)(F)F)cn34)ccc2cc1F (single isomer, unassigned; diastereomer 2) [Example 245, dihydrochloride] was tested, and the IC50 (recombinant rat PIM-3) was 0.5 nM, the IC50 (PIM-1) was 1.04 nM and the IC50 [1] was 125 nM.

N[C@H]1CCN([C@H](c2ccc3nnc(-c4ccc5cc(F)cc(OCCO)c5n4)n3c2)C(F)(F)F)C1 [Example 254, 2-(2-(6-((R)-1-((S)-3-aminopyrrolidin-1-yl)-2,2,2-trifluoroethyl)-[1,2,4]triazolo[4,3-a]pyridin-3-yl)-6-fluoroquinolin-8-yloxy)ethanol dihydrochloride] was tested, and the IC50 (recombinant rat PIM-3) was 0.9 nM, the IC50 (PIM-1) was 0.25 nM and the IC50 [1] was 273 nM.
